Test results from ChEMBL document CHEMBL1158212, “Squamotacin: an annonaceous acetogenin with cytotoxic selectivity for the human prostate tumor cell line (PC-3)” (J Nat Prod, 1996).
Values after ≈ are worked out from the molar mass of the structure shown.

What was measured:
[1] = tested on: MCF7; test: Cytotoxicity against human MCF7 cells; format: functional; details: read-out: ED50 (the source's name)
[2] = tested on: HT-29; test: Cytotoxicity against human HT29 cells; format: functional; details: read-out: ED50 (the source's name)
[3] = tested on: A498; test: Cytotoxicity against human A498 cells; format: functional; details: for EC50: Homo sapiens, A498, read-out: ED50 (the source's name)
[4] = tested on: A549; test: Cytotoxicity against human A549 cells; format: functional; details: for EC50: Homo sapiens, A549, read-out: ED50 (the source's name)
[5] = (§1) Toxicity in Artemia salina; format: organism-based; details: in vivo
[6] = Cytotoxicity against human PC3 cells; format: cell-based, PC-3; details: read-out: ED50 (the source's name)
[7] = tested on: MIA PaCa-2; test: Cytotoxicity against human MIAPaCa2 cells; format: functional; details: for EC50: Homo sapiens, MIA PaCa-2, read-out: ED50 (the source's name)
[8] = tested on: Artemia salina; test: as §1; format: organism-based; details: in vivo

Row | SMILES | EC50 [1] [ng/mL] | EC50 [2] [ng/mL] | ED50 [3] [×10⁻⁵ ug/ml] | ED50 [4] [×10⁻⁶ ug/ml] | LC50 [5] [ng/mL] | CC50 [6] [ng/mL] | EC50 [3] [ng/mL] | EC50 [4] [ng/mL] | EC50 [7] [ng/mL] | LC50 [8] [×10⁻² ug/ml] | ED50 [7] [×10⁻⁴ ug/ml]
1 | CCCCCCCCCC[C@@H](O)[C@@H]1CC[C@@H]([C@@H]2CC[C@@H]([C@H](O)CCCCCCCCCC(O)CC3=CC(C)OC3=O)O2)O1 (stereo not given in full) [BULLATACIN] | 696 (≈ 1140 nM) | > 1000 | 4.85 | 2.44 | – | – | – | – | – | – | –
2 | CCCCCCCCCC[C@H](O)[C@H]1CC[C@H]([C@H]2CC[C@H]([C@H](O)CCCCCCCCCC[C@@H](O)CC3=C[C@H](C)OC3=O)O2)O1 [BULLATACIN] | – | – | – | – | 1.59 (≈ 2.55 nM) | 1e-06 (≈ 1.61e-06 nM) | – | – | – | – | –
3 | COc1cccc2c1C(=O)c1c(O)c3c(c(O)c1C2=O)C[C@@](O)(C(=O)CO)C[C@@H]3O[C@H]1C[C@H](N)[C@H](O)[C@H](C)O1 [DOXORUBICIN] | 347 (≈ 638 nM) | 41.6 (≈ 76.5 nM) | – | – | 257 (≈ 473 nM) | 342 (≈ 629 nM) | 24.9 (≈ 45.8 nM) | 28.4 (≈ 52.3 nM) | 3.17 (≈ 5.83 nM) | – | –
4 | CCCCCCCCCC[C@H](O)[C@H]1CC[C@H]([C@H]2CC[C@H]([C@H](O)CCCCCCCC[C@@H](O)CC3=C[C@H](C)OC3=O)O2)O1 [MOLVIZARIN] | > 1000 | 7.32 (≈ 12.3 nM) | – | – | – | – | 709 (≈ 1190 nM) | 63 (≈ 106 nM) | 7.66 (≈ 12.9 nM) | 5.26 | –
5 | CCCCCCCCCCCC[C@H](O)[C@H]1CC[C@H]([C@H]2CC[C@H]([C@H](O)CCCCCCCC[C@@H](O)CC3=C[C@H](C)OC3=O)O2)O1 [SQUAMOTACIN] | > 1000 | 1 (≈ 1.61 nM) | – | – | 6.8 (≈ 10.9 nM) | – | > 1000 | 27.7 (≈ 44.5 nM) | – | – | 1.33
